Experimental data published in US12552797B2, “Process for making (3-[cyclopropylethoxy(difluoro)methyl]-6-6[5-fluoro-6-(2,2,2-trifluoroethoxy-3-pyridyl]- [1,2,4]triazolo[4,3-a]pyrazine” (Praxis Precision Medicines, Inc., priority 2019, dated 2026).
Values after ≈ are worked out from the molar mass of the structure shown. Read-outs that look alike come from different tables or passages of the source.

Tests used:
[1] = Solubility of Compound 1 in solution formulation vehicles (visual); format: physicochemical; conditions: for solubility: organic solvent or mixture, thermodynamic from solid, read-out: maximum solubility (visually determined)
Protocol: 2400 μL PEG 400 was added to a 8 mL glass vial together with 3 mg of Compound 1 and mixed together by Vortex and sonicated for 5 min. Then 600 μL Cremophor RH40 was added to the container, mixed together by Vortex and sonicated for 5 min. Then 3000 μL water was added to the container, mixed together by Vortex and sonicated for 5 min.
About 15 mg compound were weighted to a 8 mL glass container and then 2 mL Prototype 2a was added to the glass container. The contents were mixed together by vortexing and sonication for 5 min.
About 15 mg compound was weighed to an 8 mL glass containers and then 2 mL of Prototype 2b was added to the container and mixed together by vortex and sonicated for 5 min. […] in Prototype 2b with 7.5 mg/mL was not clear. Then another 140 μL of Prototype 2b vehicle was added to the container and mixed together by vortex and sonicated for 5 min.
600 μL PEG 400 was added to a 4 mL glass vial together with 3 mg of Compound 1 and mixed together by Vortex and sonicated for 5 min. Then 150 μL Cremophor RH40 was added to the container and mixed together by Vortex and sonicated for 5 min. Then 750 μL water was added to the container and mixed together by vortexing and sonicated for 5 min.
(§1) Cremophor RH40, Capmul MCM Co, Triethylcitrate and Ethanol were added together on a weight basis to a glass container and mixed together to form a solution mixture. […] Additional Compound 1 was added with vortexing and sonication until Compound 1 was no longer soluble. The resulting maximum solubility was visually determined to be between 25 and 50 mg/mL.
as §1, with “Capryol 90, Labrasol” for “Cremophor RH40, Capmul MCM Co, Triethylcitrate”, “Transcutol HP” for “Ethanol”, “volumetric” for “weight”, “60” for “25”, “80” for “50”

[2] = Stability of suspension formulations in methylcellulose/Poloxamer 188 vehicles (appearance, concentration, purity, PSD); format: physicochemical; parameters: key to Appearance: *: homogeneous suspension initially, sedimentation occurred over time and returned to homogeneous after gentle agitation for ~1 min; #: viscous homogeneous suspension initially, sedimentation occurred over time and returned to homogeneous after gentle agitation for ~2 mins; conditions: 0.5% 400 cP MC, 0.2% Poloxamer 188
Protocol: As shown in Tables 9-11, various suspension formulations were tested for stability under different conditions.
To prepare a suspension weigh required amount of milled Compound 1 into a glass container and add corresponding volume of the vehicle. Thoroughly disperse the compound into a homogenous suspension using an overhead mixer at the final concentration target. Concentrations were prepared at 0.1 mg/mL and at 10 mg/mL. The suspension products were physically evaluated on visual appearance, concentration, purity and PSD.
The vehicles are prepared by dissolving 0.5% by weight of either 400 cP methylcellulose or 4000 cP methylcellulose and 0.2% Poloxamer 188. For the preserved suspensions, additionally 1.0% by volume of paraben preservative solution was dissolved into vehicle using an overhead mixer. The paraben preservative solution was prepared by dissolving 0.10 g methyl paraben, 0.025 g propylparaben in 9.875 g propylene glycol dissolved by mixing with a stir bar at room temperature for 1 hour.

[3] = target 0.1 mg/mL, 2-8° C., 14 D
[4] = target 0.1 mg/mL, 2-8° C., 28 D
[5] = target 0.1 mg/mL, 2-8° C., time 0
[6] = target 0.1 mg/mL, 25° C./60% RH, 2 M
[7] = target 0.1 mg/mL, 25° C./60% RH, 3 M
[8] = target 0.1 mg/mL, 25° C./60% RH, 7 D
[9] = target 0.1 mg/mL, 25° C./60% RH, 14 D
[10] = target 0.1 mg/mL, 25° C./60% RH, 28 D
[11] = target 0.1 mg/mL, 25° C./60% RH, time 0
[12] = target 10 mg/mL, 2-8° C., time 0
[13] = target 10 mg/mL, 25° C./60% RH, 2 M
[14] = target 10 mg/mL, 25° C./60% RH, 3 M
[15] = target 10 mg/mL, 25° C./60% RH, 7 D
[16] = target 10 mg/mL, 25° C./60% RH, 14 D
[17] = target 10 mg/mL, 25° C./60% RH, 28 D
[18] = target 10 mg/mL, 25° C./60% RH, time 0

dissolution in vehicle (visual) ([1]; Prototype 1: 40% PEG 400/10% Cremophor RH40/50% Water, 0.5 mg/mL): dissolved completely | dissolution in vehicle (visual) ([1]; Prototype 2a vehicle, 7.5 mg/mL): clear solution | dissolution in vehicle (visual) ([1]; Prototype 2b vehicle, 7.5 mg/mL): not clear | dissolution in vehicle (visual) ([1]; Prototype 3, 2 mg/mL): dissolved completely | solubility ([1]; Prototype 4 solution formulation vehicle, Prototype 4: 36% Cremophor RH40+45% Capmul MCM C8+9% Triethylcitrate+10% Ethanol): 25 to 50 mg/mL (≈ 61.4 to 123 mM) | solubility ([1]; Prototype 5 solution formulation vehicle, Prototype 5: 40 Capryol 90+20% Labrasol+40% Transcutol HP): 60 to 80 mg/mL (≈ 147 to 196 mM) | Appearance ([2]; target 0.1 mg/mL, 2-8° C., 2 M): * | Conc. ([2]; target 0.1 mg/mL, 2-8° C., 2 M): 110 µg/mL | PSD (D90) ([2]; target 0.1 mg/mL, 2-8° C., 2 M): 9.1 μm | Purity ([2]; target 0.1 mg/mL, 2-8° C., 2 M): 95.87% | Appearance ([2]; target 0.1 mg/mL, 2-8° C., 3 M): * | Conc. ([2]; target 0.1 mg/mL, 2-8° C., 3 M): 110 µg/mL | PSD (D90) ([2]; target 0.1 mg/mL, 2-8° C., 3 M): 12.7 μm | Purity ([2]; target 0.1 mg/mL, 2-8° C., 3 M): 93.20% | Appearance ([2]; target 0.1 mg/mL, 2-8° C., 7 D): * | Conc. ([2]; target 0.1 mg/mL, 2-8° C., 7 D): 120 µg/mL | PSD (D90) ([2]; target 0.1 mg/mL, 2-8° C., 7 D): 18.2 μm | Purity ([2]; target 0.1 mg/mL, 2-8° C., 7 D): 100% | Appearance [2, 3]: * | Conc. [2, 3]: 110 µg/mL | PSD (D90) [2, 3]: 14.2 μm | Purity [2, 3]: 100% | Appearance [2, 4]: * | Conc. [2, 4]: 110 µg/mL | PSD (D90) [2, 4]: 15.4 μm | Purity [2, 4]: 100% | Appearance [2, 5]: * | Conc. [2, 5]: 110 µg/mL | PSD (D90) [2, 5]: 19.9 μm | Purity [2, 5]: 100% | Appearance [2, 6]: * | Conc. [2, 6]: 110 µg/mL | PSD (D90) [2, 6]: 8.6 μm | Purity [2, 6]: 95.87% | Appearance [2, 7]: * | Conc. [2, 7]: 110 µg/mL | PSD (D90) [2, 7]: 11.1 μm | Purity [2, 7]: 93.20% | Appearance [2, 8]: * | Conc. [2, 8]: 110 µg/mL | PSD (D90) [2, 8]: 19.9 μm | Purity [2, 8]: 100.0% | Appearance [2, 9]: * | Conc. [2, 9]: 110 µg/mL | PSD (D90) [2, 9]: 12.9 μm | Purity [2, 9]: 100% | Appearance [2, 10]: * | Conc. [2, 10]: 100 µg/mL | PSD (D90) [2, 10]: 8.7 μm | Purity [2, 10]: 100% | Appearance [2, 11]: * | Conc. [2, 11]: 110 µg/mL | PSD (D90) [2, 11]: 19.9 μm | Purity [2, 11]: 100.0% | Appearance ([2]; target 10 mg/mL, 2-8° C., 2 M): * | Conc. ([2]; target 10 mg/mL, 2-8° C., 2 M): 10990 µg/mL | PSD (D90) ([2]; target 10 mg/mL, 2-8° C., 2 M): 4.0 μm | Purity ([2]; target 10 mg/mL, 2-8° C., 2 M): 99.83% | Appearance ([2]; target 10 mg/mL, 2-8° C., 3 M): * | Conc. ([2]; target 10 mg/mL, 2-8° C., 3 M): 10130 µg/mL | PSD (D90) ([2]; target 10 mg/mL, 2-8° C., 3 M): 3.6 μm | Purity ([2]; target 10 mg/mL, 2-8° C., 3 M): 99.83% | Appearance ([2]; target 10 mg/mL, 2-8° C., 7 D): * | Conc. ([2]; target 10 mg/mL, 2-8° C., 7 D): 10180 µg/mL | PSD (D90) ([2]; target 10 mg/mL, 2-8° C., 7 D): 6.4 μm | Purity ([2]; target 10 mg/mL, 2-8° C., 7 D): 99.83% | Appearance ([2]; target 10 mg/mL, 2-8° C., 14 D): * | Conc. ([2]; target 10 mg/mL, 2-8° C., 14 D): 10660 µg/mL | PSD (D90) ([2]; target 10 mg/mL, 2-8° C., 14 D): 5.4 μm | Purity ([2]; target 10 mg/mL, 2-8° C., 14 D): 99.83% | Appearance ([2]; target 10 mg/mL, 2-8° C., 28 D): * | Conc. ([2]; target 10 mg/mL, 2-8° C., 28 D): 10560 µg/mL | PSD (D90) ([2]; target 10 mg/mL, 2-8° C., 28 D): 3.8 μm | Purity ([2]; target 10 mg/mL, 2-8° C., 28 D): 99.83% | Appearance [2, 12]: * | Conc. [2, 12]: 10040 µg/mL | PSD (D90) [2, 12]: 5.6 μm | Purity [2, 12]: 99.83% | Appearance [2, 13]: * | Conc. [2, 13]: 10470 µg/mL | PSD (D90) [2, 13]: 4.3 μm | Purity [2, 13]: 99.83% | Appearance [2, 14]: * | Conc. [2, 14]: 10160 µg/mL | PSD (D90) [2, 14]: 3.5 μm | Purity [2, 14]: 99.83% | Appearance [2, 15]: * | Conc. [2, 15]: 10480 µg/mL | PSD (D90) [2, 15]: 6.3 μm | Purity [2, 15]: 99.83% | Appearance [2, 16]: * | Conc. [2, 16]: 9850 µg/mL | PSD (D90) [2, 16]: 5.2 μm | Purity [2, 16]: 99.83% | Appearance [2, 17]: * | Conc. [2, 17]: 10000 µg/mL | PSD (D90) [2, 17]: 4.6 μm | Purity [2, 17]: 99.83% | Appearance [2, 18]: * | Conc. [2, 18]: 10040 µg/mL | PSD (D90) [2, 18]: 5.6 μm | Purity [2, 18]: 99.83%
Structure (SMILES): CCOC(F)(F)c1nnc2cnc(-c3cnc(OCC(F)(F)F)c(F)c3)cn12 [Compound 1, 3-(ethoxydifluoromethyl)-6-(5-fluoro-6-(2,2,2-trifluoroethoxy)pyridin-3-yl)-[1,2,4]triazolo[4,3-a]pyrazine]
